Data published in patent publication US20050239656A1, “Pyridine compounds or salts thereof and herbicides containing the same” (priority 2002, published 2005).

How the values were obtained:
wheat [1] = assay: Test Example 1: foliage treatment, upland pot test; type: in vivo, Triticum spp.; details: crop, active ingredient 500 g/ha, observed 18th to 23rd day, 0 = non-treated, 100 = complete kill
Description: Upland field soil was put into a 1/170,000 ha pot, and seed of various plants were sown. Then, when the plants reached predetermined leaf stages ((1) barnyardgrass: 1.3 to 2.8 leaf stages, (2) crabgrass: 1.0 to 2.8 leaf stages, (3) green foxtail: 1.3 to 2.6 leaf stages, (4) redroot pigweed: 0.1 to 1.2 leaf stages, (5) prickly sida: 0.1 to 1.2 leaf stages, (6) velvetleaf: 0.1 to 1.2 leaf stages, (7) tall morningglory: 0.1 to 1.5 leaf stages, (8) rice: 1.2 to 2.6 leaf stages, (9) wheat: 1.3 to 2.4 leaf stages, (10) corn, 2.1 to 3.2 leaf stages, (11) soybean: 0.1 to 0.4 leaf stage), a wettable powder or emulsifiable concentrate having the compound of the present invention formulated in accordance with a usual formulation method, was weighed so that the active ingredient would be a predetermined amount, and diluted with water in an amount of 500 L/ha. To the diluted solution, 0.1% (v/v) of agricultural spreader was added. The herbicide thus adjusted was applied by a small size sprayer for foliage treatment. On the 18th to 23rd days after the application of the herbicide, the growth of the respective plants was visually observed, and the herbicidal effects were evaluated by the growth controlling degrees (%) ranging from 0 (equivalent to the non-treated plot) to 100 (complete kill), whereby the results shown in Table 3, were obtained.

rice [2] = assay: Test Example 2: soil surface treatment, upland pot test; type: in vivo, Oryza sativa L.; details: observed 20th to 28th day
How it was run: (§1)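 Readout was visual percent growth control (0 matching untreated, 100 complete kill) at days 20–28. Compound, as emulsifiable concentrate or wettable powder at a preset active-ingredient rate in 1,500 L/ha water, was sprayed onto sown upland soil one day after sowing.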

soybean [3] = assay: as above; type: in vivo, Glycine max Merr.; details: observed 20th to 28th day
How it was run: as §1

velvetleaf [4] = assay: as above; type: in vivo, Abutilon theophrasti MEDIC.; details: observed 20th to 28th day
How it was run: as §1

corn [5] = assay: as above; type: in vivo, Zea mays L.; details: observed 20th to 28th day
How it was run: as §1

prickly sida [6] = assay: as above; type: in vivo, Sida spinosa L.; details: observed 20th to 28th day
How it was run: as §1

rice [7] = assay: Test Example 1: foliage treatment, upland pot test; type: in vivo, Oryza sativa L.; details: crop, active ingredient 500 g/ha, observed 18th to 23rd day, 0 = non-treated, 100 = complete kill
How it was run: (§2)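 Visual growth-control score, 0% (like untreated) to 100% (complete kill), taken on days 18 to 23 after foliar spraying. Leaf stage at treatment: barnyardgrass 1.3–2.8, rice 1.2–2.6, wheat 1.3–2.4, soybean 0.1–0.4. Spray: wettable powder or EC in 500 L/ha water, 0.1% v/v spreader added.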

green foxtail [8] = assay: Test Example 2: soil surface treatment, upland pot test; type: in vivo, Setaria viridis L.; details: observed 20th to 28th day
How it was run: as §1

redroot pigweed [9] = assay: as above; type: in vivo, Amaranthus retroflexus L.; details: observed 20th to 28th day
How it was run: as §1

redroot pigweed [10] = assay: Test Example 1: foliage treatment, upland pot test; type: in vivo, Amaranthus retroflexus L.; details: active ingredient 500 g/ha, observed 18th to 23rd day, 0 = non-treated, 100 = complete kill
barnyardgrass [11] = assay: Test Example 2: soil surface treatment, upland pot test; type: in vivo, Echinochloa crus-galli L.; details: observed 20th to 28th day
How it was run: as §1

japanese bulrush = assay: Test Example 3: paddy pot test, application under submerged conditions; type: in vivo, Scirpus juncoides; details: active ingredient 250 g/ha; submerged application at 0.5 leaf stage; visually observed 14 days after application; 0 = non-treated, 100 = complete kill
How it was run: (§3)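 Barnyardgrass and japanese bulrush sown in flooded paddy soil in greenhouse pots, japanese ribbon wapato tubers planted 1–2 days later; water depth kept at 3–4 cm. Diluted wettable powder or emulsifiable concentrate applied into water at 0.5-leaf or primary-leaf stage at set active-ingredient doses. Growth control scored visually at 14 days, 0 (untreated) to 100% (complete kill).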

corn [12] = assay: Test Example 1: foliage treatment, upland pot test; type: in vivo, Zea mays L.; details: crop, active ingredient 500 g/ha, observed 18th to 23rd day, 0 = non-treated, 100 = complete kill
How it was run: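 Corn seeds were sown in upland field soil held in a 1/170,000 ha pot and grown to the 2.1 to 3.2 leaf stage. A wettable powder or emulsifiable concentrate of the test compound was diluted with water at 500 L/ha, given 0.1% (v/v) agricultural spreader, and sprayed onto the foliage with a small sprayer. Growth controlling degree (%) was scored visually 18th to 23rd days later, from 0 (non-treated) to 100 (complete kill).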

prickly sida [13] = assay: Test Example 1: foliage treatment, upland pot test; type: in vivo, Sida spinosa L.; details: active ingredient 500 g/ha, observed 18th to 23rd day, 0 = non-treated, 100 = complete kill
velvetleaf [14] = assay: Test Example 1: foliage treatment, upland pot test; type: in vivo, Abutilon theophrasti MEDIC.; details: active ingredient 500 g/ha, observed 18th to 23rd day, 0 = non-treated, 100 = complete kill
green foxtail [15] = assay: Test Example 1: foliage treatment, upland pot test; type: in vivo, Setaria viridis L.; details: active ingredient 500 g/ha, observed 18th to 23rd day, 0 = non-treated, 100 = complete kill
soybean [16] = assay: Test Example 1: foliage treatment, upland pot test; type: in vivo, Glycine max Merr.; details: crop, active ingredient 500 g/ha, observed 18th to 23rd day, 0 = non-treated, 100 = complete kill
How it was run: as §2

barnyardgrass [17] = assay: Test Example 1: foliage treatment, upland pot test; type: in vivo, Echinochloa crus-galli L.; details: active ingredient 500 g/ha, observed 18th to 23rd day, 0 = non-treated, 100 = complete kill
How it was run: as §2

crabgrass [18] = assay: Test Example 1: foliage treatment, upland pot test; type: in vivo, Digitaria sanguinalis L.; details: active ingredient 500 g/ha, observed 18th to 23rd day, 0 = non-treated, 100 = complete kill
barnyardgrass [19] = assay: Test Example 3: paddy pot test, application under submerged conditions; type: in vivo, Echinochloa crus-galli L.; details: active ingredient 250 g/ha; submerged application at 0.5 leaf stage; visually observed 14 days after application; 0 = non-treated, 100 = complete kill
How it was run: as §3

crabgrass [20] = assay: Test Example 2: soil surface treatment, upland pot test; type: in vivo, Digitaria sanguinalis L.; details: observed 20th to 28th day
How it was run: as §1

wheat [21] = assay: as above; type: in vivo, Triticum spp.; details: observed 20th to 28th day
How it was run: as §1

rice (var. Nihonbare) = assay: Test Example 3: paddy pot test, transplanted rice; type: in vivo, Oryza sativa L.; details: active ingredient 250 g/ha, applied 4th day after transplantation, visually observed 21st day after application, 0 = non-treated, 100 = complete kill
How it was run: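 Rice (var. Nihonbare) at 2 leaf stage transplanted 3 cm deep into puddled paddy soil under 3–4 cm flooding; on day 4 after transplanting, diluted wettable powder or emulsifiable concentrate applied by pipette under submerged conditions at a set active-ingredient dose. Growth scored visually 21 days after application, 0 (untreated) to 100 (complete kill) %.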

| Structure (SMILES) | Growth controlling degree (%) wheat (wheat [1]) | Growth controlling degree (%) Rice (rice [2]; active ingredient 500 g/ha) | Growth controlling degree (%) Soyabean (soybean [3]; active ingredient 500 g/ha) | Growth controlling degree (%) Velvetleaf (velvetleaf [4]; active ingredient 500 g/ha) | Growth controlling degree (%) Corn (corn [5]; active ingredient 500 g/ha) | Growth controlling degree (%) Prickly sida (prickly sida [6]; active ingredient 500 g/ha) | Growth controlling degree (%) Rice (rice [7]) | Growth controlling degree (%) Green foxtail (green foxtail [8]; active ingredient 500 g/ha) | Growth controlling degree (%) Redroot pigweed (redroot pigweed [9]; active ingredient 500 g/ha) | Growth controlling degree (%) Redroot pigweed (redroot pigweed [10]) | Growth controlling degree (%) Japanese bulrush (japanese bulrush) | Growth controlling degree (%) Corn (corn [12]) | Growth controlling degree (%) Prickly sida (prickly sida [13]) | Growth controlling degree (%) Velvetleaf (velvetleaf [14]) | Growth controlling degree (%) Green foxtail (green foxtail [15]) | Growth controlling degree (%) Soybean (soybean [16]) | Growth controlling degree (%) Barnyardgrass (barnyardgrass [17]) | Growth controlling degree (%) Crabgrass (crabgrass [18]) | Growth controlling degree (%) Barnyardgrass (barnyardgrass [19]) | Growth controlling degree (%) Rice (rice (var. Nihonbare)) | other results |
| --- | --- | --- | --- | --- | --- | --- | --- | --- | --- | --- | --- | --- | --- | --- | --- | --- | --- | --- | --- | --- | --- |
| CC(Oc1ccc(F)cc1)C(=O)N(C)C(c1cnccc1C(F)(F)F)C(C)C (mixture of isomers) [I-133] | 40% | 70% | 30% | 50% | 50% | 80% | 40% | 100% | 50% | 70% | 95% | 80% | 80% | 70% | 70% | 80% | 70% | 70% | 100% | 10% | Growth controlling degree (%) Barnyardgrass (barnyardgrass [11]; active ingredient 500 g/ha): 100%; Growth controlling degree (%) Crabgrass (crabgrass [20]; active ingredient 500 g/ha): 98%; Growth controlling degree (%) wheat (wheat [21]; active ingredient 500 g/ha): 40% |
| CC(C)CC(=O)N(C)C(c1cnccc1C(F)(F)F)C(C)C (stereo not drawn) [I-193] | 80% | – | – | – | – | – | 80% | – | – | 80% | 95% | 80% | 90% | 60% | 80% | 80% | 95% | 90% | 100% | 30% | Growth controlling degree (%) Rice (rice [2]; active ingredient 250 g/ha): 80%; Growth controlling degree (%) Soyabean (soybean [3]; active ingredient 250 g/ha): 10%; Growth controlling degree (%) Velvetleaf (velvetleaf [4]; active ingredient 250 g/ha): 10%; Growth controlling degree (%) Corn (corn [5]; active ingredient 250 g/ha): 70%; Growth controlling degree (%) Prickly sida (prickly sida [6]; active ingredient 250 g/ha): 80%; Growth controlling degree (%) Green foxtail (green foxtail [8]; active ingredient 250 g/ha): 100%; Growth controlling degree (%) Redroot pigweed (redroot pigweed [9]; active ingredient 250 g/ha): 10%; Growth controlling degree (%) Barnyardgrass (barnyardgrass [11]; active ingredient 250 g/ha): 100%; Growth controlling degree (%) Crabgrass (crabgrass [20]; active ingredient 250 g/ha): 100%; Growth controlling degree (%) wheat (wheat [21]; active ingredient 250 g/ha): 60% |
| CC(C)C(c1cnccc1C(F)(F)F)N(C)S(=O)(=O)c1ccc(F)cc1F (racemic) [I-127] | 0% | 20% | 10% | 40% | 10% | 50% | 30% | 100% | 60% | 20% | 70% | 40% | 70% | 60% | 50% | 60% | 70% | 95% | 100% | 0% | Growth controlling degree (%) Barnyardgrass (barnyardgrass [11]; active ingredient 500 g/ha): 100%; Growth controlling degree (%) Crabgrass (crabgrass [20]; active ingredient 500 g/ha): 90%; Growth controlling degree (%) wheat (wheat [21]; active ingredient 500 g/ha): 30% |
